Values quoted from earlier work in patent publication US20220235034A1, “SELECTIVE HISTAMINE H3 RECEPTOR ANTAGONISTS FOR TREATING AUTISM SPECTRUM DISORDER” (RICHTER GEDEON NYRT., priority 2019, published 2022).

Legend:
ASD subjects = conditions: humans; cited from earlier work
prenatal VPA model = conditions: in vivo; cited from earlier work
histamine H3 receptor [1] = target: T1, histamine H3 receptor (Homo sapiens, UniProt Q9Y5N1); conditions: according to WO 2014/136075A1; cited from earlier work
T1 sequence (Q9Y5N1 whole entry, species assumed): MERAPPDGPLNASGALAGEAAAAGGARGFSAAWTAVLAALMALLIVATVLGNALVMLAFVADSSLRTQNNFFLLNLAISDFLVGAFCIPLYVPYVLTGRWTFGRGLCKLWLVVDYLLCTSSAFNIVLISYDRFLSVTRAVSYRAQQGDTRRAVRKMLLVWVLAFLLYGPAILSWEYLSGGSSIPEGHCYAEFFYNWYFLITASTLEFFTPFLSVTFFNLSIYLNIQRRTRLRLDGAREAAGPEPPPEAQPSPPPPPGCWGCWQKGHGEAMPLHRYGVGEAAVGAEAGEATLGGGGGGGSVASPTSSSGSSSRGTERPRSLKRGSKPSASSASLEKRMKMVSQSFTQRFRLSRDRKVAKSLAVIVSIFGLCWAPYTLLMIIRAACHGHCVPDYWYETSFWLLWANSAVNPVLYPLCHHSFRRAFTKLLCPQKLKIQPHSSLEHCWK

histamine H3 receptor [2] = target: T2, histamine H3 receptor (Rattus norvegicus, UniProt Q9QYN8); conditions: in vivo in rats; cited from earlier work
T2 construct: from tissue; host or cells: living rat (in vivo)
T2 sequence (Q9QYN8 whole entry): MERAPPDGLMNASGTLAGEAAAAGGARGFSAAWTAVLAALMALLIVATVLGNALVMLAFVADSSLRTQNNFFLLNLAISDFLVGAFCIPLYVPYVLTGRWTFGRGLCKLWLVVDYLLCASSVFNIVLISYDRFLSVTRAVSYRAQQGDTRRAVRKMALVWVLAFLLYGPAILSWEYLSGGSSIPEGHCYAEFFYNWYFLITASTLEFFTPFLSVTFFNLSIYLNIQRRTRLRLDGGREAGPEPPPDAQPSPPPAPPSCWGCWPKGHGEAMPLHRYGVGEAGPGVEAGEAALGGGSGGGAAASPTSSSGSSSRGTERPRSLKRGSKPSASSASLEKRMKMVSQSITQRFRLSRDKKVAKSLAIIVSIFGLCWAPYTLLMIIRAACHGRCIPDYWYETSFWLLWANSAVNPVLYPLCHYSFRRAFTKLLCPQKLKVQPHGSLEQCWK

histamine H3 receptor [3] = target: T1, histamine H3 receptor; conditions: cited from earlier work
rat monoamine oxidase A = target: T3, rat monoamine oxidase A (Rattus norvegicus, UniProt P21396); conditions: cited from earlier work
T3 sequence (P21396 1-526): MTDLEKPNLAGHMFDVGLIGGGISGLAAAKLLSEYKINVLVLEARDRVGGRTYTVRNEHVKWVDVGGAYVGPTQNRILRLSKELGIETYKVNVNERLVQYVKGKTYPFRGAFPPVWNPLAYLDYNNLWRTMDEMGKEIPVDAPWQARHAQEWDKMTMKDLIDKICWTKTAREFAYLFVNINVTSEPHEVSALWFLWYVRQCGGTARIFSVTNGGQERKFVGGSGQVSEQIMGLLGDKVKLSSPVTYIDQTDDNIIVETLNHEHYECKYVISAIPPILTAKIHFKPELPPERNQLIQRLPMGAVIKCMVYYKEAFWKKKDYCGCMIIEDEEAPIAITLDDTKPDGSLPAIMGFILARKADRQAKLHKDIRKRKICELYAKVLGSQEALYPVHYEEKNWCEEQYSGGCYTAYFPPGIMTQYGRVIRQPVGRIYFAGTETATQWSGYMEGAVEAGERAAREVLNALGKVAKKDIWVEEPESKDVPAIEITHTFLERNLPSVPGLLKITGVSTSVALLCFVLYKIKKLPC

rat monoamine oxidase B = target: T4, rat monoamine oxidase B (Rattus norvegicus, UniProt P19643); conditions: cited from earlier work
T4 sequence (P19643 1-520): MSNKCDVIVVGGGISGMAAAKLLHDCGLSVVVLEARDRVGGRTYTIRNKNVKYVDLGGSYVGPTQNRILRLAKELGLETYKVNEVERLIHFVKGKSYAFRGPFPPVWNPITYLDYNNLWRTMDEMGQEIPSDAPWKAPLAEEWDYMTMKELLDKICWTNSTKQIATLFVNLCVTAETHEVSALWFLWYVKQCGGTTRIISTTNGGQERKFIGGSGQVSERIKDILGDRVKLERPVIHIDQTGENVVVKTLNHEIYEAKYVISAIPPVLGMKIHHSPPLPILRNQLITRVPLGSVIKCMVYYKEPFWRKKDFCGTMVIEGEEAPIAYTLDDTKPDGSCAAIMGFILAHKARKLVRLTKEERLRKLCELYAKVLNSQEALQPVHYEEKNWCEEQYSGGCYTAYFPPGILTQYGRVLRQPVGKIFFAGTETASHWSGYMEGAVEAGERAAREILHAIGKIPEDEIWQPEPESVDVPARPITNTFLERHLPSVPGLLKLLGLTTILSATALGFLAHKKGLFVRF

[4] = system: prenatally VPA-exposed mice; conditions: cited from earlier work
[5] = 3 mg/kg intraperitoneally; cited from earlier work
[6] = target: T5, human monoamine oxidase A (Homo sapiens, UniProt P21397); conditions: cited from earlier work
T5 sequence (P21397 1-527): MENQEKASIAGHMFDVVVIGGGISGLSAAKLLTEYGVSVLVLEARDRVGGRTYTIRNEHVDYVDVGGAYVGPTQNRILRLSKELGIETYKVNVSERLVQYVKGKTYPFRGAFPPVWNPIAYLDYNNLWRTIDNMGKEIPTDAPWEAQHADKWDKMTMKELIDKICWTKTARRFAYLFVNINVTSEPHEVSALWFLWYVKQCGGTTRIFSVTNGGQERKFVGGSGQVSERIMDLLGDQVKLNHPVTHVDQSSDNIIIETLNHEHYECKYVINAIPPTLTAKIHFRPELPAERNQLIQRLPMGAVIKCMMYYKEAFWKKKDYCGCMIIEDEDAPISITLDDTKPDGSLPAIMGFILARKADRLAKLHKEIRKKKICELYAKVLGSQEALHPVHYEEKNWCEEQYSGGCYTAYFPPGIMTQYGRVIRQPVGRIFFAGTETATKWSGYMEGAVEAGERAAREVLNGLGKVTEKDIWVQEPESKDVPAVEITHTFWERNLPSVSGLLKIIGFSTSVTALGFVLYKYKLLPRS

[7] = target: T6, human monoamine oxidase B (Homo sapiens, UniProt P27338); conditions: cited from earlier work
T6 sequence (P27338 1-520): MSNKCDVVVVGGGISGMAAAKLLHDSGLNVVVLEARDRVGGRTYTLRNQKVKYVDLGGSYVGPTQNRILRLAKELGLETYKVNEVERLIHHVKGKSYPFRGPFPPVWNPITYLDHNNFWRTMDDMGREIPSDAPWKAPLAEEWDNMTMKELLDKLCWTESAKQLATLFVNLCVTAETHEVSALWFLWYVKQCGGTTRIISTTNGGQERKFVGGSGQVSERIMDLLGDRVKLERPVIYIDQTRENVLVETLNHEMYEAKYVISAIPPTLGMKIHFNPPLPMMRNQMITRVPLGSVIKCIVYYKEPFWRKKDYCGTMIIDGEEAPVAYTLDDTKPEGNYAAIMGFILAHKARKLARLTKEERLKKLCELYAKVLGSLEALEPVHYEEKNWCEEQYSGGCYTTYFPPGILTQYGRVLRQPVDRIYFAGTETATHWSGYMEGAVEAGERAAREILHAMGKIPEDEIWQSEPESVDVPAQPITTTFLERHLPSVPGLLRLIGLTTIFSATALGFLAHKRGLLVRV

[8] = 3 mg/kg intraperitoneally, prenatal valproate model in mice

CC[C@H](C)[C@@H]1NC(=O)[C@H](Cc2ccc(O)cc2)NC(=O)[C@@H](N)CSSC[C@@H](C(=O)N2CCC[C@H]2C(=O)N[C@@H](CC(C)C)C(=O)NCC(N)=O)NC(=O)[C@H](CC(N)=O)NC(=O)[C@H](CCC(N)=O)NC1=O [oxytocin]
efficacy signals in ASD subjects (ASD subjects): produced efficacy signals
behavioral impairments in the prenatal VPA model (prenatal VPA model): improve behavioral impairments

CC(=O)N1CCC(Oc2ccc(OCCCN3CCC[C@H]3C)cc2)CC1 [Compound of Formula 1, 1-[4-(4-{3-[(2R)-2-methylpyrrolidin-1-yl]-propoxy}-phenoxy)-piperidin-1-yl]-ethan-1-on]
affinity for histamine H3 receptor (histamine H3 receptor [1]): high affinity
selectivity for histamine H3 receptor (histamine H3 receptor [1]): highly selective
histamine H3 receptor antagonism in vivo (histamine H3 receptor [2]): shows histamine H3 receptor antagonism in vivo
functional behaviour in vitro (histamine H3 receptor [3]): receptor antagonist/inverse agonist

O=C(c1ccc(OCCCc2cnc[nH]2)cc1)C1CC1 [ciproxifan]
inhibition of monoamine oxidase A, concentration range (rat monoamine oxidase A): micromolar concentration range
inhibition of monoamine oxidase B, concentration range (rat monoamine oxidase B): micromolar concentration range
excessive repetitive behavior [4, 8]: improved
social deficits [4, 8]: improved
social novelty preference ([4]; prenatally VPA-exposed mice): did not have an effect
plasma exposures [5]: micromolar range
inhibition of monoamine oxidase A, concentration range [6]: micromolar concentration range
preference between monoamine oxidase A and B ([7]; human and rat enzymes): slight preference for monoamine oxidase B
inhibition of monoamine oxidase B, concentration range ([7]; human): micromolar concentration range
